Results taken from EPA's ToxRefDB 2.

What was measured:
dog [1] = settings: Subchronic oral toxicity in nonrodent, beagle, Feed, dose end: 103 day, group: systemic
rabbit [2] = settings: Prenatal developmental toxicity study, new zealand white, Oral, Gavage/Intubation, dose end: 28 GD
rat [3] = settings: Multigenerational reproductive toxicity study, sprague dawley, Oral, Feed, dose end: 2 generation
rat [4] = settings: Prenatal developmental toxicity study, sprague dawley, Oral, Gavage/Intubation, dose end: 15 GD
rat [5] = settings: Subchronic oral toxicity in rodents, sprague dawley, Feed, dose end: 90 day, group: systemic, systemic / clinical chemistry / cholesterol / cholesterol + systemic / in life observation / body weight / body weight + systemic / in life …
rabbit [6] = settings: Sub-acute repeat dose toxicity; new zealand white; Oral; Gavage/Intubation; dose end: 4 day; group: systemic; systemic / in life observation / clinical signs / erythema + systemic / in life observation / clinical signs / tachypnea
dog [7] = settings: Subchronic oral toxicity in nonrodent, beagle, Gavage/Intubation, dose end: 91 day, group: systemic
rat [8] = settings: Sub-acute repeat dose toxicity, sprague dawley, Oral, Gavage/Intubation, dose end: 12 day, group: systemic
rat [9] = settings: Sub-acute repeat dose toxicity, sprague dawley, Oral, Feed, dose end: 10 day, group: systemic
mouse = settings: Sub-acute repeat dose toxicity; Oral; Feed; dose end: 10 day; group: systemic; systemic / in life observation / body weight / body weight + systemic / in life observation / food consumption / food consumption
dog [10] = settings: Sub-acute repeat dose toxicity, beagle, Oral, Gavage/Intubation, dose end: 15 day, group: systemic
rat [11] = settings: Subchronic oral toxicity in rodents, sprague dawley, Gavage/Intubation, dose end: 91 day, group: systemic
rat [12] = settings: Sub-acute repeat dose toxicity, sprague dawley, Oral, Gavage/Intubation, dose end: 14 day, group: systemic
[13] = systemic / clinical chemistry / albumin / albumin + systemic / clinical chemistry / calcium / calcium + systemic / clinical chemistry / …
[14] = group: developmental, developmental / offspring survival late / lactation index / lactation index + developmental / offspring survival late / viability index / …
[15] = group: maternal, reproductive / offspring survival early / dead fetuses / dead fetuses
[16] = group: offspring, developmental / offspring survival late / viability index / viability index + systemic / in life observation / body weight / offspring (pup…
[17] = group: parental, systemic / in life observation / body weight / body weight gain + systemic / organ weight / liver / relative to body weight
[18] = group: developmental, developmental / developmental malformation / bone / enlarged fontanel + developmental / developmental malformation / bone / incomplete …
[19] = group: maternal, systemic / in life observation / body weight / body weight gain
[20] = group: maternal, systemic / in life observation / body weight / body weight gain + systemic / in life observation / body weight / body weight + systemic / in…
[21] = systemic / clinical chemistry / alkaline phosphatase (alp/alk) / alkaline phosphatase (alp/alk) + systemic / clinical chemistry / bilirubin…
[22] = systemic / in life observation / clinical signs / emesis
[23] = systemic / in life observation / clinical signs / salivation
[24] = systemic / in life observation / clinical signs / salivation + systemic / in life observation / food consumption / food consumption + …
[25] = systemic / in life observation / body weight / body weight + systemic / in life observation / clinical signs / drooping eyelids (ptosis) + …
[26] = systemic / in life observation / body weight / body weight + systemic / in life observation / clinical signs / lacrimation or red-colored …
[27] = systemic / in life observation / clinical signs / arrhythmia + systemic / in life observation / clinical signs / emesis
[28] = systemic / in life observation / clinical signs / arrhythmia + systemic / in life observation / clinical signs / emesis + systemic / in life…
[29] = systemic / organ weight / heart / absolute + systemic / pathology microscopic / thyroid gland / hypertrophy + systemic / in life observation…
[30] = systemic / pathology microscopic / blood vessel / arteritis + systemic / in life observation / body weight / body weight

CCNS(=O)(=O)C(F)(F)C(F)(F)C(F)(F)C(F)(F)C(F)(F)C(F)(F)C(F)(F)C(F)(F)F [Sulfluramid]
LOAEL (dog [1]; [13]): > 23.2 mg/kg/day
NOAEL (dog [1]; [13]): ≥ 23.2 mg/kg/day
LEL (dog [1]; systemic / organ weight / liver / relative to body weight + systemic / clinical chemistry / calcium / calcium): 2.52 mg/kg/day
LEL (rabbit [2]; [14]): 0.3 mg/kg/day
LOAEL (rabbit [2]; [14]): 0.3 mg/kg/day
NEL (rabbit [2]; [14]): < 0.3 mg/kg/day
NOAEL (rabbit [2]; [14]): < 0.3 mg/kg/day
LEL (rabbit [2]; [15]): 0.3 mg/kg/day
LOAEL (rabbit [2]; [15]): 0.3 mg/kg/day
NEL (rabbit [2]; [15]): < 0.3 mg/kg/day
NOAEL (rabbit [2]; [15]): < 0.3 mg/kg/day
LEL (rat [3]; [16]): 1.34 mg/kg/day
LOAEL (rat [3]; [16]): 1.34 mg/kg/day
NEL (rat [3]; [16]): 0.45 mg/kg/day
NOAEL (rat [3]; [16]): 0.45 mg/kg/day
LEL (rat [3]; [17]): 1.34 mg/kg/day
LOAEL (rat [3]; [17]): 1.34 mg/kg/day
NEL (rat [3]; [17]): 0.45 mg/kg/day
NOAEL (rat [3]; [17]): 0.45 mg/kg/day
LEL (rat [4]; [18]): 13.3 mg/kg/day
LOAEL (rat [4]; [18]): 13.3 mg/kg/day
NEL (rat [4]; [18]): 3.3 mg/kg/day
NOAEL (rat [4]; [18]): 3.3 mg/kg/day
LEL (rat [4]; [19]): 3.3 mg/kg/day
LOAEL (rat [4]; [19]): 3.3 mg/kg/day
NEL (rat [4]; [20]): 0.8 mg/kg/day
NOAEL (rat [4]; [20]): 0.8 mg/kg/day
LEL (rat [5]): 2.5 mg/kg/day
LOAEL (rat [5]): 2.5 mg/kg/day
NEL (rat [5]): 0.5 mg/kg/day
NOAEL (rat [5]): 0.5 mg/kg/day

CCCOc1ccc(S(=O)(=O)N2CCN(CC)CC2)cc1-c1nc2c(CC)n(Cc3ccccn3)nc2c(=O)[nH]1
LEL (rabbit [6]): 400 mg/kg/day
LOAEL (rabbit [6]): > 400 mg/kg/day
NEL (rabbit [6]): < 400 mg/kg/day
NOAEL (rabbit [6]): ≥ 400 mg/kg/day
LOAEL (dog [7]; [21]): > 100 mg/kg/day
NOAEL (dog [7]; [21]): ≥ 100 mg/kg/day
LEL (dog [7]; [22]): 10 mg/kg/day
NEL (dog [7]; [22]): < 10 mg/kg/day
LEL (rat [8]; [23]): 100 mg/kg/day
NEL (rat [8]; [23]): < 100 mg/kg/day
LOAEL (rat [8]; [24]): > 400 mg/kg/day
NOAEL (rat [8]; [24]): ≥ 400 mg/kg/day
LOAEL (rat [9]; [25]): > 2000 mg/kg/day
NOAEL (rat [9]; [25]): ≥ 2000 mg/kg/day
LEL (rat [9]; [26]): 500 mg/kg/day
NEL (rat [9]; [26]): < 500 mg/kg/day
LEL (mouse): 2000 mg/kg/day
LOAEL (mouse): > 2000 mg/kg/day
NOAEL (mouse): ≥ 2000 mg/kg/day
LEL (dog [10]; [27]): 15 mg/kg/day
NEL (dog [10]; [27]): < 15 mg/kg/day
LOAEL (dog [10]; [28]): > 150 mg/kg/day
NOAEL (dog [10]; [28]): ≥ 150 mg/kg/day
NEL (rat [11]; systemic / organ weight / heart / absolute + systemic / pathology microscopic / thyroid gland / hypertrophy): 25 mg/kg/day
LEL (rat [11]; [29]): 100 mg/kg/day
LOAEL (rat [11]; [29]): > 400 mg/kg/day
NOAEL (rat [11]; [29]): ≥ 400 mg/kg/day
NEL (rat [12]; systemic / pathology microscopic / blood vessel / arteritis): 45 mg/kg/day
LEL (rat [12]; [30]): 200 mg/kg/day
LOAEL (rat [12]; [30]): > 200 mg/kg/day
NOAEL (rat [12]; [30]): ≥ 200 mg/kg/day
